pEC50: −log10 of the molar value.
Experiments:
[1] = Liver microsomal stability, rat; type: in vitro ADME; conditions: pH 7.4; rat liver microsomes, 0.5 mg/mL protein, 1 μM compound, NADPH; >80% remaining at 45 min denoted >140; read-out: Liver Microsomal Stability: t1/2 (min); rat
Protocol: (§1) Compounds were subjected to the following assays to investigate liver microsomal stability, permeability and plasma protein binding.
(§2) Pooled liver microsomes were purchased from a reputable commercial supplier and stored at −80° C. prior to use. Microsomes (final protein concentration 0.5 mg/mL), 0.1 M phosphate buffer pH 7.4 and test compound (final substrate concentration 1 μM; final DMSO concentration 0.25%) were pre-incubated at 37° C. prior to the addition of NADPH (final concentration 1 mM) to initiate the reaction. The final incubation volume was 50 μL. A control incubation was included for each compound tested where 0.1 M phosphate buffer pH 7.4 was added instead of NADPH (minus NADPH). Two control compounds were included with each species. All incubations were performed singularly for each test compound. Each compound was incubated for 0, 5, 15, 30 and 45 min. The control (minus NADPH) was incubated for 45 min only. The reactions were stopped by transferring incubate into acetonitrile at the appropriate time points, in a 1:3 ratio. The termination plates are centrifuged at 3,000 rpm for 20 min at 4° C. to precipitate the protein. Following protein precipitation, the sample supernatants were combined in cassettes of up to 4 compounds, internal standard added, and samples analysed by LC-MS/MS. From a plot of ln peak area ratio (compound peak area/internal standard peak area) against time, the gradient of the line was determined. Subsequently, half-life (t1/2) and intrinsic clearance (CLint) were calculated.

Cell cytotoxicity CC50 = type: cell-based; conditions: human; mean of at least two experiments
RSV A2 = test: RSV plaque reduction assay; type: cell-based, respiratory syncytial virus (RSV); conditions: human respiratory syncytial virus, HepG2; Hep-G2 cells, RSV A2, mean of at least two experiments
Protocol: Compounds were subjected to RSV plaque reduction assays according to the following protocol.
Hep-G2 cells (ECACC, 85011430) were passaged in flasks and seeded in 24-well plates in DMEM containing antibiotics and supplemented with 10% FBS. During inoculation and subsequent incubation, cells were cultured in DMEM containing 2% FBS. 100 plaque forming unit/well of RSV (RSV A2 ECACC, 0709161v) was mixed with eight serial dilutions of compound. Subsequently, 100 μL of the virus/compound mixtures was added to confluent Hep-G2 cell monolayers. The cells and virus/compound mixtures were incubated at 37° C. in a humidified 5% CO2 incubator for 2 h prior to removal of the inoculum and addition of 1 mL of overlay (DMEM containing 2% FBS and 0.8% CMC) containing compound dilutions. The cells and were incubated at 37° C. in a humidified 5% CO2 incubator for 2 days.
Cells were washed with PBS before adding 75/25% v/v EtOH/MeOH, for 3 min. Fixative was removed and plates were washed with PBS. A pre-titrated amount of the primary antibody was added in 200 μL PBS/2% milk powder, and plates incubated for 90 min at 37° C. The plates were washed 3 times with PBS/0.05% Tween20 before addition of rabbit anti-goat horse radish peroxidase in 200 μL PBS/2% milk powder, and incubated for 1 h at 37° C. Following three wash steps with PBS/0.05% Tween20, 200 μL ready-to-use TrueBlue was added and plates were incubated at rt for 10-15 min before washing with water. After removal of water, plates were air-dried in the dark.
Plates were scanned and analysed using the Immunospot S6 Macro analyser, which is equipped with BioSpot analysis software for counting immunostained plaques (virospots). Plaque counts were used to calculate % infection relative to the mean of the plaque count in the virus control wells for RSV. The EC50 value was calculated as 50% reduction in signal, respectively, by interpolation of inhibition curves fitted with a 4-parameter nonlinear regression with a variable slope in Dotmatics. Plaque EC50 and cell toxicity CC50 values are a mean of at least two experiments and figures are rounded to whole units.

[2] = Liver microsomal stability, dog; type: in vitro ADME; conditions: pH 7.4; dog liver microsomes, 0.5 mg/mL protein, 1 μM compound, NADPH; >80% remaining at 45 min denoted >140; read-out: Liver Microsomal Stability: t1/2 (min); dog
Protocol: as §1, §2

[3] = Liver microsomal stability, human; type: in vitro ADME; conditions: pH 7.4; human liver microsomes, 0.5 mg/mL protein, 1 μM compound, NADPH; >80% remaining at 45 min denoted >140; read-out: Liver Microsomal Stability: t1/2 (min); human
Protocol: as §1, §2

Row | SMILES | half-life [1] [min] | CC50 (Cell cytotoxicity CC50) [nM] | pEC50 (RSV A2) | half-life [2] [min] | half-life [3] [min]
1 | CCn1ncc(C(=O)N[C@H]2N=C(c3ccccc3)c3ccccc3NC2=O)c1-c1ccc(NC)nc1F [Example 1, 1-Ethyl-5-[2-fluoro-6-(methylamino)pyridin-3-yl]-N-[(3S)-2-oxo-5-phenyl-1,3-dihydro-1,4-benzodiazepin-3-yl]pyrazole-4-carboxamide] | 24.4 | > 25000 | 7.04 | 11.1 | 48.1
2 | CCNc1ccc(-c2c(C(=O)N[C@H]3N=C(c4ccccc4)c4ccccc4NC3=O)cnn2CC)c(F)n1 [Example 2, 1-Ethyl-5-[6-(ethylamino)-2-fluoropyridin-3-yl]-N-[(3S)-2-oxo-5-phenyl-1,3-dihydro-1,4-benzodiazepin-3-yl]pyrazole-4-carboxamide] | 30.3 | > 25000 | 7.06 | 23.9 | 44.4
3 | CCn1ncc(C(=O)N[C@H]2N=C(c3ccccc3)c3ccccc3NC2=O)c1-c1ccc(NC2CCC2)nc1F [Example 5, 5-[6-(Cyclobutylamino)-2-fluoropyridin-3-yl]-1-ethyl-N-[(3S)-2-oxo-5-phenyl-1,3-dihydro-1,4-benzodiazepin-3-yl]pyrazole-4-carboxamide] | 47.4 | > 25000 | 7.06 | 45.7 | 50.1
4 | CCn1ncc(C(=O)N[C@H]2N=C(c3ccccc3)c3ccccc3NC2=O)c1-c1ccc(NC2(C)CC2)nc1F [Example 6, 1-Ethyl-5-[2-fluoro-6-[(1-methylcyclopropyl)amino]pyridin-3-yl]-N-[(3S)-2-oxo-5-phenyl-1,3-dihydro-1,4-benzodiazepin-3-yl]pyrazole-4-carboxamide] | 31.5 | > 25000 | 7.49 | 72.5 | 23
5 | CCn1ncc(C(=O)N[C@H]2N=C(c3ccccc3)c3ccccc3NC2=O)c1-c1ncc(NC2CC2)cc1F [Example 7, 5-[5-(Cyclopropylamino)-3-fluoropyridin-2-yl]-1-ethyl-N-[(3S)-2-oxo-5-phenyl-1,3-dihydro-1,4-benzodiazepin-3-yl]pyrazole-4-carboxamide] | 595 | > 25000 | 7.16 | 85.8 | 97
6 | CCn1ncc(C(=O)N[C@H]2N=C(c3ccccc3)c3ccccc3NC2=O)c1-c1ncc(NC(C)C)cc1F [Example 8, 1-Ethyl-5-[3-fluoro-5-(propan-2-ylamino)pyridin-2-yl]-N-[(3S)-2-oxo-5-phenyl-1,3-dihydro-1,4-benzodiazepin-3-yl]pyrazole-4-carboxamide] | > 140 | > 25000 | 7.49 | 104 | 193
7 | CCn1ncc(C(=O)N[C@H]2N=C(c3ccccc3)c3ccccc3NC2=O)c1-c1ccc(NC(C)C)cc1F [Example 9, 1-Ethyl-5-[2-fluoro-4-(propan-2-ylamino)phenyl]-N-[(3S)-2-oxo-5-phenyl-1,3-dihydro-1,4-benzodiazepin-3-yl]pyrazole-4-carboxamide] | 141 | > 25000 | 7.14 | 89.1 | 220
8 | CCNc1ccc(-c2c(C(=O)N[C@H]3N=C(c4ccccc4)c4ccccc4NC3=O)c(C)nn2CC)c(F)n1 [Example 10, 1-Ethyl-5-[6-(ethylamino)-2-fluoropyridin-3-yl]-3-methyl-N-[(3S)-2-oxo-5-phenyl-1,3-dihydro-1,4-benzodiazepin-3-yl]pyrazole-4-carboxamide] | 20.2 | > 25000 | 7.05 | 85.8 | 48.1
9 | CCn1ncc(C(=O)N[C@H]2N=C(c3ccccc3)c3cccc(F)c3NC2=O)c1-c1ncc(NC2CC2)cc1F [Example 12, 5-[5-(Cyclopropylamino)-3-fluoropyridin-2-yl]-1-ethyl-N-[(3S)-9-fluoro-2-oxo-5-phenyl-1,3-dihydro-1,4-benzodiazepin-3-yl]pyrazole-4-carboxamide] | 51.1 | > 25000 | 7.35 | 68.5 | 193
10 | CC(C)Nc1ccc(-c2c(C(=O)N[C@H]3N=C(c4ccccc4)c4cccc(F)c4NC3=O)cnn2C2COC2)c(F)n1 [Example 41, N-[(3S)-9-Fluoro-2-oxo-5-phenyl-1,3-dihydro-1,4-benzodiazepin-3-yl]-5-[2-fluoro-6-(propan-2-ylamino)pyridin-3-yl]-1-(oxetan-3-yl)pyrazole-4-carboxamide] | – | > 25000 | 7.04 | – | –
11 | CC(C)c1ccc(-c2c(C(=O)N[C@H]3N=C(c4ccccc4)c4cccc(F)c4NC3=O)cnn2C2CCOCC2)c(F)c1 [Example 45, 5-(2-Fluoro-4-propan-2-ylphenyl)-1-(oxan-4-yl)-N-[(3S)-9-fluoro-2-oxo-5-phenyl-1,3-dihydro-1,4-benzodiazepin-3-yl]pyrazole-4-carboxamide] | – | > 25000 | 7.42 | – | –
12 | CCc1ccc(-c2c(C(=O)N[C@H]3N=C(c4ccccc4)c4ccccc4NC3=O)cnn2C2CCOCC2)c(F)c1 [Example 46, 5-(4-Ethyl-2-fluorophenyl)-1-(oxan-4-yl)-N-[(3S)-2-oxo-5-phenyl-1,3-dihydro-1,4-benzodiazepin-3-yl]pyrazole-4-carboxamide] | – | > 25000 | 7.47 | – | –
13 | CCc1ccc(-c2c(C(=O)N[C@H]3N=C(c4ccccc4)c4ccccc4NC3=O)cnn2C2CCOCC2)c(F)n1 [Example 52, 5-(6-Ethyl-2-fluoropyridin-3-yl)-1-(oxan-4-yl)-N-[(3S)-2-oxo-5-phenyl-1,3-dihydro-1,4-benzodiazepin-3-yl]pyrazole-4-carboxamide] | – | > 25000 | 7.06 | – | –
14 | CCOc1nn(CC)c(-c2ccccc2F)c1C(=O)N[C@H]1N=C(c2ccccc2)c2ccccc2NC1=O [Example 54, 3-Ethoxy-1-ethyl-5-(2-fluorophenyl)-N-[(3S)-2-oxo-5-phenyl-1,3-dihydro-1,4-benzodiazepin-3-yl]pyrazole-4-carboxamide] | – | > 25000 | 7.29 | – | –
15 | O=C(N[C@H]1N=C(c2ccccc2)c2cccc(F)c2NC1=O)c1cnn(C2CCOCC2)c1-c1ccc(NC2CC2)nc1 [Example 56, 5-[6-(Cyclopropylamino)pyridin-3-yl]-1-(oxan-4-yl)-N-[(3S)-9-fluoro-2-oxo-5-phenyl-1,3-dihydro-1,4-benzodiazepin-3-yl]pyrazole-4-carboxamide] | – | > 25000 | 7.11 | – | –
16 | CC(C)Nc1ccc(-c2c(C(=O)N[C@H]3N=C(c4ccccc4)c4cccc(F)c4NC3=O)cnn2C2CCOCC2)cn1 [Example 58, 1-(Oxan-4-yl)-5-[6-(propan-2-ylamino)pyridin-3-yl]-N-[(3S)-9-fluoro-2-oxo-5-phenyl-1,3-dihydro-1,4-benzodiazepin-3-yl]pyrazole-4-carboxamide] | – | > 25000 | 7.00 | – | –
17 | CCc1ccc(-c2c(C(=O)N[C@H]3N=C(c4ccccc4)c4cccc(F)c4NC3=O)cnn2C2CCN(C)CC2)c(F)c1 [Example 59, 5-(4-Ethyl-2-fluorophenyl)-1-(1-methylpiperidin-4-yl)-N-[(3S)-9-fluoro-2-oxo-5-phenyl-1,3-dihydro-1,4-benzodiazepin-3-yl]pyrazole-4-carboxamide] | – | 15200 | 6.97 | – | –

— patent publication US20220409629A1, “BENZODIAZEPINE DERIVATIVES FOR TREATING A RESPIRATORY SYNCYTIAL VIRUS (RSV) INFECTION” (priority 2019, published 2022)
